Here are results for one compound from patent US20210038559A1, “CANNABINOIDS AND DERIVATIVES FOR PROMOTING IMMUNOGENICITY OF TUMOR AND INFECTED CELLS” (priority 2018, published 2021).

Series [1] concerns CD8+ T cells from OT1 mice co-cultured with A9 cells. In words: OT1 CD8+ T cell proliferation (CFSE) in co-culture with […]-loaded A9 cells. Format: cell-based, mouse. The protocol:
FIG. 8. A proliferation experiment using CD8^+ T cells from […]-primed OT1 mice in response to […] peptide presented on MHC class I of A9 cells. A9 cells were treated with 0.055 μM of Cannabigerol, 5.832×10^−6 nM of IFN gamma positive control. The negative control is named “CFSE and […] CD8^+ T cells”. T cells were labeled with CFSE proliferation dye, which is reduced within the progeny cells as the generations progress.
FIG. 9 MHC Class I expression of A9 cells associated with CD8^+ T cells from […]-primed OT. A9 cells were treated with 0.055 μM of Cannabigerol, or 5.832×10^4 nM of IFN gamma.
A cytolytic assay was performed as follows. A9 cells (1×10^6) were plated onto a 6 well plate in two mL of RPMI media (Advanced RPMI-1640 Medium (Gibco), 100 U/mL of Penicillin-Streptomycin (P+S) (Thermofisher), 1% L-Glutamine (Gibco), and 10% FBS). A9 cells were treated with either Cannabigerol 0.055 μM, 5.832×10^4 nM IFN gamma, or 1% DMSO vehicle. After 24 hours, […] OVA Peptide ([…]) (Genscript), was added to the A9 cells. Following an additional 24 hours, CD8^+ T cells were collected from OT1 mouse spleens. […] An extra well of untreated A9 cells was counted and used as a standard count. CD8^+ T cells were counted and then treated with CFSE (Biolegend) per manufacture protocol, before being co-cultured with A9 cells to a 1:1 ratio or a 1:5 ratio. […]

Series [2] concerns MHC-I expression on COLO 205 cells. In words: Phytocannabinoid MHC-I induction on COLO 205 cells, 0-100 μM, 48 hours. The protocol: FIG. 4. Cell surface MHC class I expression was measured by flow cytometry (MFI).
Phytocannabinoids were tested for MHC-I-inducing activity on COLO 205 cells. Each cannabinoid was tested at a concentration range of 0-100 μM. […] “ND” indicates not determined.

Series [3] concerns MHC class I expression, mouse Lewis lung carcinoma cell line A9. In words: MHC class I expression in mouse A9 Lewis lung carcinoma cells, 24 hours, flow cytometry. Type of series: cell-based. Conditions: 21 μM, relative to the DMSO control. The protocol: FIG. 1A-1B. Cannabigerol stimulates MHC class I expression in the mouse A9 Lewis lung carcinoma (FIG. 1A) and the human COLO 205 colorectal carcinoma (FIG. 1B) cell lines. Cells were treated for 24 hours with 21.2 μM (A) or 25 and 50 μM (FIG. 1B) cannabigerol.
Cannabigerol, a representative cannabinoid, was tested for its ability to also stimulate MHC class I expression in mammalian cancer cell lines. The mouse Lewis lung carcinoma cell line, A9, was treated with 21 μM of cannabigerol for 24 hours prior to flow cytometric analysis of cell surface expression of MHC class I expression levels using the MHC class I antibody W6/32 (Thermo Fisher). Control conditions included the vehicle, dimethyl sulfoxide (DMSO, 1%) alone, and 100 ng/ml of trichostatin A (TSA), a histone deacetylase inhibitor and known inducer of MHC class I expression in mammalian cells. […] The positive control, TSA, stimulated expression by 2.4-fold.

Series [4] concerns A9 cells, soluble mouse proteins. In words: Cytokine secretion profile in Cannabigerol treated A9 cells (Proteome Profiler Mouse XL cytokine array). Format: cell-based. Conditions: 0.055 μM, 48 hours, versus DMSO. The protocol: FIG. 10A-10E show the cytokines and other markers that have increased or decreased expression after treatment with cannabinoids, as compared to interferon gamma. FIG. 10A) Inflammatory markers; FIG. 10B) Cell growth markers; FIG. 10C) Leukocyte migration markers; FIG. 10D) Cell growth and differentiation markers; FIG. 10E) summary of markers.
Cannabigerol and IFN gamma were dissolved in 1% Dimethyl Sulfoxide (DMSO) (Sigma) in media (1% DMSO). 1×10^6 A9 cells were plated onto a 6 well plate in two mL of DMEM media. Twenty-four hours after seeding, cells were cultured at the optimum concentrations of Cannabigerol 0.055 μM or 5.832×10^−6 nM IFN gamma or 1% DMSO vehicle for 48 hours. Relative expression levels of 111 soluble mouse proteins including cytokines, chemokines and growth factors were evaluated using the Proteome Profiler Mouse XL cytokine array kit (R&D System, ARY028) following the manufacturer's instructions. Spot densities on the array film were detected and quantified using Image J analysis software Image J protein analyzer add-on on a scanned version of the film. Quantification of the spot intensity in the arrays was conducted with background subtraction in ImageJ. To determine fold change, the treatment values of IFN gamma microarrays were divided by the DMSO negative control values of the concurring spots. A value of 1 was subtracted from the absolute value of this fold change, to correct the value of DMSO to “0”. Experiment was done in technical replicates.
There also was an increase in VEGFA. Additionally, there was downregulation of IL-10, and IL-11. There also was a decrease in the production of IGFBP1 and angiopoietin-1,

Each structure is given as a SMILES string.

Take `CCCCCc1cc(O)c(C/C=C(\C)CCC=C(C)C)c(O)c1` [Example 1, 2-[(2E)-3,7-dimethyl-2,6-octadien-1-yl]-5-pentyl-1,3-benzenediol]: the “MHC class I on the A9 cells associated with the OT1 T cells” value in series [1] (A9 cells treated with 0.055 μM) is on record as “increase”. Also, the “proliferation of OT1 CD8+ T cells” value in series [1] (A9 cells treated with 0.055 μM for 48 hours prior to co-culture) is listed as “increased proliferation”. The compound further displayed an EC50 in series [2] (Homo sapiens, COLO 205, 48 h) of 40 µM. For the same compound, the “Fold Induction” value in series [2] (MHC-I expression on COLO 205 cells, 0-100 μM, 48 hours, relative to control cells treated only with buffer) is 2.7 Fold. Further, in series [3], the cell death result is “limited cell death” and the “increase in MHC class I expression” value was found to be 1.8 fold. Also, in series [4], the FGF-21 expression entry is “upregulated”, the IL-10 expression entry is listed as “downregulation”, the IL-11 expression result is given as “downregulation” and the IL-13 expression result is “upregulated”. Moreover, in series [4], the VEGFA expression result is listed as “increase”, the “production of IGFBP1” value was “decrease” and the “production of angiopoietin-1” value is recorded as “decrease”.
